# Test results as given in patent publication US20200289450A1, “METHODS OF REDUCING OR PREVENTING OXIDATIVE MODIFICATION OF MEMBRANE POLYUNSATURATED FATTY ACIDS” (Amarin Pharmaceuticals Ireland Limited, priority 2013, published 2020).
# What was measured:
# [1] = cited from earlier work
# [2] = molecular target: T1, HMG-CoA reductase (Homo sapiens, UniProt P04035); conditions: metabolized by hepatic cytochrome P450; cited from earlier work
# T1 sequence (P04035 1-888): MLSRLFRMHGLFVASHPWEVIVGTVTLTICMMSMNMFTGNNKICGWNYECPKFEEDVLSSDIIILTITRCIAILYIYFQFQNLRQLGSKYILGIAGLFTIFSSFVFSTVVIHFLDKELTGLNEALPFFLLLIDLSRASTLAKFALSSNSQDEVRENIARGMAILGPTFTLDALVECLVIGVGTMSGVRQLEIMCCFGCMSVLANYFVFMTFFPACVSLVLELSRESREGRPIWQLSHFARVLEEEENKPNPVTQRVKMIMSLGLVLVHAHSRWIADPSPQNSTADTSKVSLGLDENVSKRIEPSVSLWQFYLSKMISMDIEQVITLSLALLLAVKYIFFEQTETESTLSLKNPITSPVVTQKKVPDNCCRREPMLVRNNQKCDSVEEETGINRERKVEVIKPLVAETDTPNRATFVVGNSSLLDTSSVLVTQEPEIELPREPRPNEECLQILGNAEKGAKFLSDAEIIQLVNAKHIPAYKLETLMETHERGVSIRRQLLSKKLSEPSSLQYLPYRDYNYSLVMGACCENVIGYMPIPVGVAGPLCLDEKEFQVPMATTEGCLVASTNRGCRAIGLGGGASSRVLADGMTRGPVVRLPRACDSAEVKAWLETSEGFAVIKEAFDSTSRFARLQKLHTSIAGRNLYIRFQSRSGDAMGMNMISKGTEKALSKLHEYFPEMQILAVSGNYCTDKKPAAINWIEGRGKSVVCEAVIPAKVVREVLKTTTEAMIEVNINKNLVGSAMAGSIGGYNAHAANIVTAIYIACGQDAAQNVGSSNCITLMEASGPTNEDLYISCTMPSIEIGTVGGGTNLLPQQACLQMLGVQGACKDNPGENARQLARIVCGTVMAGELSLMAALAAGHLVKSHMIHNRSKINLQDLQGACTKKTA
# [3] = Glucose-induced membrane lipid peroxidation (LOOH), CHOD-iodide assay in MLVs (Example 4)
# Procedure: Vitamin E (α-tocopherol) was also purchased from Sigma-Aldrich and prepared in ethanol at 1.0 mM (ϵ=3.06×10^4 M^−1 cm^−1 at 294 nm) just prior to experimental use. […] All test compounds were further diluted in ethanol or aqueous buffer as needed. Glucose was prepared in saline buffer (0.5 mM HEPES, 154 mM NaCl, pH 7.3) at 11.0 mM (200 mg/dL). CHOD-iodide color reagent (stock) was prepared, with slight modification, as described by from El-Saadani et al. (J. […] Prior to experimental use, the CHOD reagent was activated by adding 24 μM ethylenediaminetetraacetic acid (EDTA), 20 μM butylated hydroxytoluene (BHT), and 0.2% Triton X-100. Multilamellar vesicles (MLVs) were prepared as binary mixtures of DLPC (1.0 or 2.5 mg total phospholipid per sample) and cholesterol at a fixed cholesterol-to-phospholipid (C/P) mole ratio of 0.6:1. […] Aliquot volume was reduced with each successive time point to ensure that spectrophotometric readings were within the optimal adsorption range. […] Sample absorbances were then measured against a CHOD blank at 365 nm using a Beckman DU-640 spectrophotometer. The CHOD colorimetric assay is based on the oxidation of iodide (I^−) by lipid hydroperoxide (LOOH) to form triiodide (I3^−), the quantity of which is directly proportional to the amount of LOOH present in the lipid sample. […]
# [4] = test system: human sdLDL; assay: Copper-initiated sdLDL oxidation, TBARS (Example 6)
# Procedure: (§1) An experiment to study the antioxidant effect of EPA in small dense LDL (“sdLDL”) was performed. EPA was purchased from Sigma-Aldrich (Saint Louis, Mo.) and solubilized in ethanol to 1 mM under nitrogen atmosphere. Vitamin E (α-tocopherol) was purchased from Sigma-Aldrich and prepared in ethanol at 1.0 mM (ϵ=3.06×10^4 M^−1 cm^−1 at 294 nm) just prior to experimental use. All test compounds were further diluted in ethanol or aqueous buffer as needed.
# (§2) Venous blood was collected from healthy volunteers into vacutainer tubes containing sodium EDTA. Plasma was separated by centrifugation at 3000 g for 25 min at 4° C. and adjusted to a density of 1.020 g/mL with KBr. […] Sample TBARS concentrations were determined spectrophotometrically by measuring sample absorbances against a standard curve derived from the hydrolysis of 1,1,3,3-tetramethoxypropane.
# (§3) Data are presented as mean±S.D. for (N) separate samples or treatment groups. Differences between groups were analyzed using the two-tailed, Student's t-test (for comparisons between only two groups) or ANOVA followed by Dunnett or Student-Newman-Keuls multiple comparisons post-hoc analysis (for comparisons between three or more groups). […]
# [5] = Glucose- and peroxidation-induced cholesterol domain formation, small angle x-ray diffraction (Example 4); assay type: physicochemical
# Procedure: The membrane structural effects of glucose and the various compounds examined in this study were measured at 0, 72, and 96 hour intervals. Membrane lipid vesicles were oriented for x-ray diffraction analysis as described by others (e.g., Herbette et al., Biophys. J., vol. 20(2), pages 245-272 (1977)). Briefly, a 100 μL aliquot (containing 250 μg MLV) was aspirated from each sample and transferred to a Lucite® sedimentation cell fitted with an aluminum foil substrate upon which a given sample could be collected by centrifugation. Samples were then loaded into a Sorvall AH-629 swinging bucket rotor (DuPont Corp., Wilmington, Del.) and centrifuged at 35,000 g, 5° C., for 90 min.
# After centrifugal orientation, sample supernatants were aspirated and aluminum foil substrates, each supporting a single membrane pellet, were removed from the sedimentation cells. Sample pellets were dried for 5-10 min at ambient conditions, mounted onto curved glass supports, and placed in hermetically-sealed, brass or glass containers (for immediate analysis or temporary storage, respectively). All x-ray diffraction experiments were conducted at 20° C., 74% relative humidity. The latter was established by exposing membrane samples to saturated solutions of L-(+) […] (K2C4H4O6.½H2O). Samples were incubated at these conditions for at least 1 hour prior to experimental analysis.
# Oriented membrane samples were aligned at grazing incidence with respect to a collimated, mono-chromatic CuKα x-ray beam (Kα1 and Kα2 unresolved; λ=1.54 Å) produced by a Rigaku Rotaflex RU-200, high-brilliance microfocus generator (Rigaku-MSC, The Woodlands, Tex.) as previously described (Mason et al, Biophys. J., vol. 55(4), pages 769-778 (1989)). […]
# The d-space for any given membrane multibilayer is a measurement of the unit cell periodicity of the membrane lipid bilayer (e.g., the distance from the center of one lipid bilayer to the next including surface hydration), and is calculated from Bragg's Law, hλ=2dsinθ, where h is the diffraction order, λ is the wavelength of the x-ray radiation (1.54 Å), d is the membrane lipid bilayer unit cell periodicity, and θ is the Bragg angle equal to one-half the angle between the incident beam and scattered beam.
# The presence of cholesterol domains in a given membrane sample results in the production of distinct Bragg (diffraction) peaks having singular periodicity values of 34 and 17 Å (typically referred to as first- and second-order cholesterol domain peaks). Under the specific temperature and relative humidity conditions established for these experiments, the second-order, 17 Å cholesterol domain peak was well-delineated from other, neighboring cholesterol and phospholipid diffraction peaks and was thus used to quantitate relative cholesterol domain peak intensity. […]
# [6] = test system: human LDL (unfractionated); assay: Copper-initiated oxidation of unfractionated LDL, TBARS (Example 6); conditions: 1.0 μM to 10.0 μM
# Procedure: as §1, §2, §3
# [7] = test system: human low density lipoprotein and model liposomes; conditions: cited from earlier work
smiles,measurement,setting,value
CC(C)c1c(C(=O)Nc2ccccc2)c(-c2ccccc2)c(-c2ccc(F)cc2)n1CC[C@@H](O)C[C@@H](O)CC(=O)O [atorvastatin],circulating levels of chlorotyrosine,"[1]; 10 mg, 12 weeks",significantly reduce
same,circulating levels of dityrosine,"[1]; 10 mg, 12 weeks",significantly reduce
same,circulating levels of nitrotyrosine,"[1]; 10 mg, 12 weeks",significantly reduce
same,levels of oxidized lipids associated with all apoB100-containing lipid particles,"[1]; 80 mg, 16 weeks, 2,341 patients",significant reduction
same,share of circulating HMG-CoA reductase inhibitory activity accounted for by active metabolites,[2],approximately 70%
"Cc1c(C)c2c(c(C)c1O)CC[C@@](C)(CCC[C@H](C)CCC[C@H](C)CCCC(C)C)O2 [vitamin E, α-tocopherol]",effect on LOOH formation / lipid peroxidation (FIG. 3),"[3]; 72- and 96-hour time points, glucose, 1:30 drug-to-phospholipid mole ratio",no significant effect
same,sdLDL oxidation,[4]; 1.0 μM to 10.0 μM,did not inhibit sdLDL oxidation except at the highest concentration
same,reduction of TBARS levels compared to vehicle-treated controls,"[4]; sdLDL, 10.0 μM, 2 hr after 10 μM CuSO4",26%
same,effect on membrane structure compared to control samples,"[5]; 0 hours (start of experiment), glucose 200 mg/dL, 1:30 drug-to-phospholipid mole ratio",no appreciable effect
same,cholesterol crystalline domain peaks (d-space 34 Å),"[5]; 72 hours oxidative conditions, glucose 200 mg/dL, 1:30",observed
same,cholesterol domain peaks,"[5]; 96 hours oxidative conditions, glucose 200 mg/dL, 1:30",disproportionately greater
same,effect on cholesterol domain formation compared to control,[5]; any experimental time point (FIG. 5),no significant effect
same,LDL oxidation,[6],did not inhibit LDL oxidation at any concentration
"CC(C)c1c(C(=O)Nc2ccccc2O)c(-c2ccccc2)c(-c2ccc(F)cc2)n1CC[C@@H](O)C[C@@H](O)CC(=O)O [ATM, Atorvastatin ortho- (o-) hydroxy (active) metabolite]",antioxidant properties,[7],potent antioxidant properties
same,antioxidant effects (LOOH formation),"[3]; each at 1.0 μM, glucose 200 mg/dL, 96 hours",separate and potent antioxidant effects
